In data set [1] the test system is Hepatotoxicity. Briefly: Literature-mined compound from Fourches et al multi-species drug-induced liver injury (DILI) dataset, effect in rodents. The following applies: rodentia.
Data set [2] relates to Hepatotoxicity. The experiment in a line: Literature-mined compound from Fourches et al multi-species drug-induced liver injury (DILI) dataset, effect in non-rodents.
For data set [3], the system named is Hepatotoxicity. The experiment in a line: Literature-mined compound from Fourches et al multi-species drug-induced liver injury (DILI) dataset, effect in humans. The following applies: human.

In the case of `Cc1cc2c(cc1CC(=O)c1sccc1S(=O)(=O)Nc1onc(C)c1Cl)OCO2` [SITAXENTAN], the values for the Hepatotoxicity entry with Hepatotoxicity [1], in the data set with Hepatotoxicity [2] and with Hepatotoxicity [3] were “no drug-induced liver injury reported”, “no drug-induced liver injury reported” and “drug-induced liver injury reported”, respectively.
As for `CC(=O)[O-].[Na+]` [SODIUM ACETATE], the Hepatotoxicity result with Hepatotoxicity [1] (Liver) is “drug-induced liver injury reported”; in the data set with Hepatotoxicity [2] (Liver) it was “no drug-induced liver injury reported”; with Hepatotoxicity [3] (Liver), “no drug-induced liver injury reported”.
As to `O=C([O-])c1ccccc1.[Na+]` [SODIUM BENZOATE], the Hepatotoxicity result in the data set on Hepatotoxicity [1] is on record as “drug-induced liver injury reported”; in the data set on Hepatotoxicity [2], “no drug-induced liver injury reported”; in the data set on Hepatotoxicity [3], “no drug-induced liver injury reported”.
Take `O=C([O-])O.[Na+]` [SODIUM BICARBONATE]: the values for the Hepatotoxicity result in the data set on Hepatotoxicity [1] (Liver), with Hepatotoxicity [2] (Liver) and in the data set with Hepatotoxicity [3] (Liver) were “drug-induced liver injury reported”, “drug-induced liver injury reported” and “no drug-induced liver injury reported”, respectively.
For the compound `O=C([O-])CCCc1ccccc1.[Na+]` [SODIUM PHENYLBUTYRATE], the Hepatotoxicity entry with Hepatotoxicity [1] is reported as “no drug-induced liver injury reported”; in the data set on Hepatotoxicity [2], “no drug-induced liver injury reported”; in the data set with Hepatotoxicity [3], “drug-induced liver injury reported”.
`O=S(=O)([O-])Oc1ccc(C(c2ccc(OS(=O)(=O)[O-])cc2)c2ccccn2)cc1.[Na+].[Na+]` [SODIUM PICOSULFATE]: the figures for the Hepatotoxicity result in the data set with Hepatotoxicity [1], in the data set on Hepatotoxicity [2] and with Hepatotoxicity [3] were “no drug-induced liver injury reported”, “no drug-induced liver injury reported” and “drug-induced liver injury reported”, respectively.
Regarding `CCC(=O)[O-].[Na+]` [SODIUM PROPIONATE], the Hepatotoxicity result is on record as “drug-induced liver injury reported” in the data set on Hepatotoxicity [1], “no drug-induced liver injury reported” with Hepatotoxicity [2] and “no drug-induced liver injury reported” in the data set with Hepatotoxicity [3].
On to `CNC(=O)c1cc(Oc2ccc(NC(=O)Nc3ccc(Cl)c(C(F)(F)F)c3)cc2)ccn1.Cc1ccc(S(=O)(=O)O)cc1` [SORAFENIB TOSYLATE], for which the Hepatotoxicity result is recorded as “no drug-induced liver injury reported” with Hepatotoxicity [1], “no drug-induced liver injury reported” with Hepatotoxicity [2] and “drug-induced liver injury reported” with Hepatotoxicity [3].
For the compound `OC[C@@H](O)[C@@H](O)[C@H](O)[C@@H](O)CO` [SORBITOL], the Hepatotoxicity result in the data set on Hepatotoxicity [1] is on record as “drug-induced liver injury reported”; in the data set on Hepatotoxicity [2] it was “no drug-induced liver injury reported”; in the data set on Hepatotoxicity [3], “drug-induced liver injury reported”.
On to `CC(C)NCC(O)c1ccc(NS(C)(=O)=O)cc1` (centres undefined) [SOTALOL], for which the Hepatotoxicity entry with Hepatotoxicity [1] was “drug-induced liver injury reported”; in the data set with Hepatotoxicity [2], “no drug-induced liver injury reported”; in the data set on Hepatotoxicity [3], “no drug-induced liver injury reported”.
Turning to `Oc1c2ccccc2c2c3c(cccc13)N=N2` [SP-600125], the Hepatotoxicity entry in the data set on Hepatotoxicity [1] is “drug-induced liver injury reported”; with Hepatotoxicity [2] it was “no drug-induced liver injury reported”; in the data set on Hepatotoxicity [3] it was “drug-induced liver injury reported”.
Take `C[C@@H]1CN(c2c(F)c(N)c3c(=O)c(C(=O)O)cn(C4CC4)c3c2F)C[C@H](C)N1` [SPARFLOXACIN]: the figures for the Hepatotoxicity entry in the data set on Hepatotoxicity [1], with Hepatotoxicity [2] and in the data set on Hepatotoxicity [3] were “no drug-induced liver injury reported”, “no drug-induced liver injury reported” and “drug-induced liver injury reported”, respectively.
In the case of `CC(=O)S[C@@H]1CC2=CC(=O)CC[C@]2(C)[C@H]2CC[C@@]3(C)[C@@H](CC[C@@]34CCC(=O)O4)[C@H]12` [SPIRONOLACTONE], the Hepatotoxicity result is “drug-induced liver injury reported” in the data set with Hepatotoxicity [1], “no drug-induced liver injury reported” with Hepatotoxicity [2] and “drug-induced liver injury reported” in the data set with Hepatotoxicity [3].
Take `C[C@]12Cc3c[nH]nc3C[C@@H]1CC[C@@H]1[C@@H]2CC[C@@]2(C)[C@H]1CC[C@]2(C)O` [STANOZOLOL]: the figures for the Hepatotoxicity entry in the data set with Hepatotoxicity [1], in the data set with Hepatotoxicity [2] and in the data set on Hepatotoxicity [3] were “drug-induced liver injury reported”, “no drug-induced liver injury reported” and “drug-induced liver injury reported”, respectively.
Take `Cc1cn([C@H]2C=C[C@@H](CO)O2)c(=O)[nH]c1=O` [STAVUDINE]: the Hepatotoxicity entry is “drug-induced liver injury reported” with Hepatotoxicity [1], “no drug-induced liver injury reported” in the data set with Hepatotoxicity [2] and “drug-induced liver injury reported” in the data set with Hepatotoxicity [3].
With `[H]/N=C(/N)N[C@H]1[C@H](O)[C@@H](O)[C@H](O[C@@H]2O[C@@H](C)[C@](O)(C=O)[C@H]2O[C@@H]2O[C@@H](CO)[C@H](O)[C@@H](O)[C@@H]2NC)[C@@H](N/C(N)=N\[H])[C@@H]1O` [STREPTOMYCIN], the Hepatotoxicity result with Hepatotoxicity [1] (Liver), in the data set with Hepatotoxicity [2] (Liver) and in the data set with Hepatotoxicity [3] (Liver) was “drug-induced liver injury reported” throughout.
In the case of `CN(N=O)C(=O)N[C@@H](C=O)[C@@H](O)[C@H](O)[C@H](O)CO` [STREPTOZOCIN], the Hepatotoxicity entry with Hepatotoxicity [1] is on record as “drug-induced liver injury reported”; in the data set on Hepatotoxicity [2] it was “drug-induced liver injury reported”; with Hepatotoxicity [3], “no drug-induced liver injury reported”.
As to `OC[C@H]1O[C@@](CO)(O[C@H]2O[C@H](CO)[C@@H](O)[C@H](O)[C@H]2O)[C@@H](O)[C@@H]1O` [SUCROSE], the figures for the Hepatotoxicity result in the data set with Hepatotoxicity [1], in the data set on Hepatotoxicity [2] and with Hepatotoxicity [3] were “drug-induced liver injury reported”, “drug-induced liver injury reported” and “no drug-induced liver injury reported”, respectively.
Take `CC1(C)[C@H](C(=O)O)N2C(=O)C[C@H]2S1(=O)=O` [SULBACTAM]: the Hepatotoxicity entry is recorded as “no drug-induced liver injury reported” in the data set with Hepatotoxicity [1], “no drug-induced liver injury reported” in the data set with Hepatotoxicity [2] and “drug-induced liver injury reported” with Hepatotoxicity [3].
As for `Nc1ccc(S(=O)(=O)Nc2ncccn2)cc1` [SULFADIAZINE], the Hepatotoxicity entry is “no drug-induced liver injury reported” in the data set on Hepatotoxicity [1] (Liver), “no drug-induced liver injury reported” in the data set on Hepatotoxicity [2] (Liver) and “drug-induced liver injury reported” in the data set with Hepatotoxicity [3] (Liver).
`COc1cc(NS(=O)(=O)c2ccc(N)cc2)nc(OC)n1` [SULFADIMETHOXINE]: the Hepatotoxicity entry in the data set with Hepatotoxicity [1] was “no drug-induced liver injury reported”; in the data set with Hepatotoxicity [2] it was “no drug-induced liver injury reported”; with Hepatotoxicity [3], “drug-induced liver injury reported”.
Turning to `COc1ncnc(NS(=O)(=O)c2ccc(N)cc2)c1OC` [SULFADOXINE], the values for the Hepatotoxicity entry in the data set with Hepatotoxicity [1], in the data set on Hepatotoxicity [2] and in the data set on Hepatotoxicity [3] were “no drug-induced liver injury reported”, “drug-induced liver injury reported” and “no drug-induced liver injury reported”, respectively.
Regarding `Cc1ccnc(NS(=O)(=O)c2ccc(N)cc2)n1` [SULFAMERAZINE], the results for the Hepatotoxicity result in the data set with Hepatotoxicity [1], in the data set with Hepatotoxicity [2] and in the data set with Hepatotoxicity [3] were “drug-induced liver injury reported”, “no drug-induced liver injury reported” and “no drug-induced liver injury reported”, respectively.
For `Cc1cc(C)nc(NS(=O)(=O)c2ccc(N)cc2)n1` [SULFAMETHAZINE], the values for the Hepatotoxicity entry with Hepatotoxicity [1], with Hepatotoxicity [2] and with Hepatotoxicity [3] were “drug-induced liver injury reported”, “no drug-induced liver injury reported” and “drug-induced liver injury reported”, respectively.
With `Cc1nnc(NS(=O)(=O)c2ccc(N)cc2)s1` [SULFAMETHIZOLE], the Hepatotoxicity entry in the data set on Hepatotoxicity [1] is “no drug-induced liver injury reported”; in the data set with Hepatotoxicity [2] it was “no drug-induced liver injury reported”; in the data set with Hepatotoxicity [3] it was “drug-induced liver injury reported”.
With `Cc1cc(NS(=O)(=O)c2ccc(N)cc2)no1` [SULFAMETHOXAZOLE], the Hepatotoxicity entry is listed as “no drug-induced liver injury reported” with Hepatotoxicity [1] (Liver), “no drug-induced liver injury reported” with Hepatotoxicity [2] (Liver) and “drug-induced liver injury reported” in the data set on Hepatotoxicity [3] (Liver).
On to `Nc1ccc(S(N)(=O)=O)cc1` [SULFANILAMIDE], for which the Hepatotoxicity entry in the data set on Hepatotoxicity [1] (Liver) is recorded as “no drug-induced liver injury reported”; with Hepatotoxicity [2] (Liver), “no drug-induced liver injury reported”; with Hepatotoxicity [3] (Liver), “drug-induced liver injury reported”.
Turning to `Nc1ccc(S(=O)(=O)Nc2ccnn2-c2ccccc2)cc1` [SULFAPHENAZOLE], the Hepatotoxicity entry is listed as “drug-induced liver injury reported” in the data set on Hepatotoxicity [1], “no drug-induced liver injury reported” with Hepatotoxicity [2] and “drug-induced liver injury reported” in the data set on Hepatotoxicity [3].
Turning to `Nc1ccc(S(=O)(=O)Nc2ccccn2)cc1` [SULFAPYRIDINE], the Hepatotoxicity entry is reported as “drug-induced liver injury reported” in the data set on Hepatotoxicity [1], “no drug-induced liver injury reported” with Hepatotoxicity [2] and “no drug-induced liver injury reported” in the data set with Hepatotoxicity [3].
On to `O=C(O)c1cc(/N=N/c2ccc(S(=O)(=O)Nc3ccccn3)cc2)ccc1O` [SULFASALAZINE], for which the Hepatotoxicity entry in the data set on Hepatotoxicity [1] was “drug-induced liver injury reported”; in the data set with Hepatotoxicity [2], “no drug-induced liver injury reported”; in the data set on Hepatotoxicity [3], “drug-induced liver injury reported”.
Turning to `O=C1C(CC[S+]([O-])c2ccccc2)C(=O)N(c2ccccc2)N1c1ccccc1` (centres undefined) [SULFINPYRAZONE], the Hepatotoxicity result with Hepatotoxicity [1] is on record as “no drug-induced liver injury reported”; in the data set on Hepatotoxicity [2] it was “no drug-induced liver injury reported”; in the data set on Hepatotoxicity [3] it was “drug-induced liver injury reported”.
As for `CCCCCCCCNC(C)C(O)c1ccc(SC(C)C)cc1` (centres undefined) [SULOCTIDIL], the Hepatotoxicity entry in the data set on Hepatotoxicity [1] is listed as “no drug-induced liver injury reported”; in the data set with Hepatotoxicity [2], “no drug-induced liver injury reported”; in the data set with Hepatotoxicity [3] it was “drug-induced liver injury reported”.
Take `CCN1CCCC1CNC(=O)c1cc(S(N)(=O)=O)ccc1OC` (centres undefined) [SULPIRIDE]: the results for the Hepatotoxicity entry in the data set on Hepatotoxicity [1], in the data set with Hepatotoxicity [2] and in the data set with Hepatotoxicity [3] were “no drug-induced liver injury reported”, “drug-induced liver injury reported” and “drug-induced liver injury reported”, respectively.

The values above are taken from ChEMBL document CHEMBL1697731, “Cheminformatics analysis of assertions mined from literature that describe drug-induced liver injury in different species” (Chem Res Toxicol, 2010).
